According to article PMC12864978, “Covalent modification of a glutamic acid inspired by HaloTag technology” (Nature Communications, 2026):
“Also recorded” adds a separate entry of the source. Read-outs that look alike come from different tables or passages of the source. One block for each molecule: values may come before it.

What was measured:
PDEδ [1] = molecular target: T1, PDEδ (Homo sapiens, UniProt O43924); assay: Covalent modification of PDEδ by MALDI mass spectrometry; format: binding; design: His tag; made in house; host or cells: Escherichia coli Rosetta (BL21DE3), pET plasmids; conditions: PDEδ 20 µM, compound 60 µM, HEPES pH 7.5, 37 °C; mean ± s.e.m.
Description: The solution was briefly centrifuged before a sample was taken at the designated time for analysis by MALDI. […] Mass spectra were obtained over the m/z range 15,000–25,000 using a Bruker UltrafleXtreme XIAL DI-TOF/TOF mass spectrometer. Percentages of covalent adduct formation were estimated by the relative intensity of the respective peaks in MALDI spectra.
1. Supplementary Figures and Tables
PDEδ (20 µM) was incubated with compounds (60 µM) in HEPES
Percentages of covalent adduct formation were estimated by the relative intensity of the respective peaks in MALDI spectra. Data are presented as mean ± s.e.m.
Apparent pseudo -first order kobs was estimated by percentages of covalent adduct formation at 2 hours by MALDI. Plot of kobs (h-1) against concentration (µM) was fitted by GraphPad […]
Prism Michaelis-Menten model and separate values for kinact and KI were obtained to calculate apparent […]
PDEδ (20 µM) was incubated with
Data are presented as mean ± s.e.m.
HEPES buffer, n = 3 for the rest). One-way ANOVA with matched time-points, with Geisser-

PDEδ [2] = molecular target: T1, PDEδ; assay: Competitive fluorescence polarisation assay (FA probe displacement); format: binding; design: His tag; made in house; host or cells: Escherichia coli Rosetta (BL21DE3), pET plasmids; conditions: PDEδ 40 nM, FA probe 24 nM, room temperature overnight
PDEδ [3] = molecular target: T1, PDEδ; assay: Differential scanning fluorimetry (NanoDSF); format: binding; design: His tag; made in house; host or cells: Escherichia coli Rosetta (BL21DE3), pET plasmids; conditions: PDEδ 20 µM, compound 60 µM; mean ± s.d., Fig. 2e; read-out: melting temperature shift ΔTm (NanoDSF)
Description: Afterwards, a sample of the solution was cooled down to room temperature and was loaded onto a capillary, followed by the measurement of fluorescence intensities at 350 nm and 330 nm from 20 °C up to 90 °C (with a rate of increment of 1 °C/min) using the Prometheus Panta device (NanoTemper® Technologies, DE).

PDEδ [4] = molecular target: T1, PDEδ; assay: Mass spectrometry analysis of PDEδ adducts after Glu-C digestion; format: binding; design: His tag; made in house; host or cells: Escherichia coli Rosetta (BL21DE3), pET plasmids; conditions: LC-MS/MS, 10:1 compound to protein
Description: For each replicate, 1.5 µg covalent adduct of PDEδ sample in PBS buffer was denatured, reduced, alkylated and digested by Glu-C and desalted, together with a negative control of unbound vehicle-treated PDEδ sample prior to mass spectrometry analysis. […] The final mixture containing 6.5 M guanidine hydrochloride was heated at 95 °C for 15 min. Subsequently, after cooling, 0.5 µl of a 50 mM dithiothreitol (DTT, cas 3483-12-3, Gerbu Biotechnik, #1008-100 g) solution was added. […] . Samples were incubated at 37 °C overnight with shaking at 400 rpm, protected from light. […] Desalting was carried out with stage tips with C18 extraction discs (Empore^TM high performance extraction discs, 47 mm, 3 M Bioanalytical Technologies #2215). Each stage tip, which consists of two stacked layers of C18 discs, was activated with methanol (100 µl), washed once with buffer B (100 µl, 0.1% formic acid, 80% acetonitrile), and twice with buffer A (100 µl/time, 0.1% formic acid). After sample loading and washing with buffer A once, the desalted sample was eluted with buffer B (20 µl/sample) and centrifuged at 500×g at room temperature for 5 min. Eluted samples were then dried in a SpeedVac at 30 °C.
Data evaluation was performed using MaxQuant software (v.2.2.0.0)[52]. […] Cleavages by Glu-C were analysed based on the enzyme that was used for digestion. […]

[5] = GSH adduct formation (stability in the presence of GSH); format: physicochemical; conditions: phosphate buffer with 10 mM GSH; 10-fold excess of GSH at 10 mM, phosphate buffer pH 7.4, 37 °C; read-out: half-life for GSH adduct formation t1/2 GSH (converted)
Description: (§1) Compound (1 mM) was incubated with the respective buffers (HEPES 20 mM, 150 mM NaCl, pH = 7.5; 0.2 M sodium acetate buffer, pH = 5.6; 0.2 M sodium citrate buffer, pH = 6.2; 0.2 M potassium phosphate buffer, pH = 7.4, 1 mM EDTA, with or without 10 mM GSH), with 1% DMSO adjusted for all conditions. […] Per cent (%) compound remaining in the solution was estimated by the ratio of areas under the curve, and data plotted were fitted to pseudo-1st kinetics in the calculation of rate constants (k) and half-lives (t1/2), where k is the negative slope of a linear regression of In (% compound remaining) over time. Half-lives (t1/2) in respective buffers and half-lives for GSH adduct formation (t1/2 GSH) were calculated with the following equations:1 t1/2=In2/k 2 kGSH=ktotalconsumptioninphosphatebufferinpresenceofGSH−k(phosphatebufferinabsenceofGSH) 3 t1/2GSH=In2/k(GSH) […]
(§2) a, Percentage (%) of compound remaining was monitored by HPLC-MS and data was fitted to pseudo-first kinetics in calculation of rate constants (k) and half-lives (t1/2) in respective buffers, where k is the negative slope of a linear regression of In (% compound remaining) over time and t 1/2 = In2/k. Initial […]
(§3) Initial GSH concentration =

[6] = Compound stability in aqueous buffers; format: physicochemical
Description: as §1, §2, §3

MIA PaCa-2 cells = assay: Real-time cell analysis (Incucyte) of proliferation; format: cell-based, human
Description: (§4) Real-time cell analysis (RTCA) was conducted using an Incucyte S3 live-cell analysis system (Sartorius AG, Germany). […] Following attachment overnight, the medium was replaced with fresh medium containing test compounds, with all conditions adjusted to contain 0.5% DMSO. […] Phase-contrast images (2 images per well) were automatically captured at 2-h intervals until control wells (DMSO-treated) reached full confluency. Cell growth was quantified using the instrument’s integrated Basic Analyser module by applying a confluence mask to calculate the percentage of phase area confluence. […] Dose-response curves were generated and fitted via four-parameter variable slope nonlinear regression to determine cellular IC₅₀ values.

SW480 cells = assay: as above; format: cell-based, human
Description: as §4

NCI-H358 cells = assay: as above; format: cell-based, human; conditions: read-out: cellular IC50
Description: as §4

BxPC-3 cells = assay: as above; format: cell-based, human
Description: as §4

PA-TU-8902 cells = assay: as above; format: cell-based, human
Description: as §4

[7] = system: panel of human cell lines; assay: Cytotoxicity screening in a panel of human cell lines; format: cell-based; conditions: concentrations up to 25 µM
Description: Real-time cell analysis (RTCA) was conducted using an Incucyte S3 live-cell analysis system (Sartorius AG, Germany). Adherent cell lines were seeded at 5 × 10³ cells per well in 96-well plates containing 100 µl of culture medium and incubated overnight at 37 °C with 5% CO₂. Following attachment overnight, the medium was replaced with fresh medium containing test compounds, with all conditions adjusted to contain 0.5% DMSO. […] Phase-contrast images (2 images per well) were automatically captured at 2-h intervals until control wells (DMSO-treated) reached full confluency. Cell growth was quantified using the instrument’s integrated Basic Analyser module by applying a confluence mask to calculate the percentage of phase area confluence. For dose-response assessment, confluence values at 72 h post-treatment were normalised to the DMSO control and analysed using GraphPad Prism 9.5.1 (GraphPad Software, USA). Dose-response curves were generated and fitted via four-parameter variable slope nonlinear regression to determine cellular IC₅₀ values.
representative of biological replicates n = 3.
comet images for each condition were shown.
time live-cell imaging by Incucyte.
Source data are provided as […]

[8] = system: Rheb localisation in PA-TU-8902 cells; assay: Immunofluorescence staining of Rheb; format: cell-based, human; conditions: 5 µM, overnight
Description: Immunostaining: compound-treated PA-TU-8902 cells were washed once with cold PBS, fixed with 3.7% paraformaldehyde in PBS by incubation at room temperature for 10 min and permeabilised with 0.3% Triton X-100 in PBS by incubation at room temperature for 15 min. […] After washing with PBS-T three times, PBS-incubated cells were imaged with Observer Z1 (Carl Zeiss, Germany) with a 63× oil objective.

PDEδ [9] = conditions: previously developed PDEδ inhibitor chemotypes, Fig. 1b; read-out: KD (reported binding affinity); cited from earlier work
UNC119B = UNC119B (Homo sapiens, UniProt A6NIH7); assay: Mass spectrometry analysis of UNC119B adducts after Lys-C digestion; conditions: 10 eq., overnight at 37 °C; including binding pocket p.E174
[10] = Homo sapiens, 72 h, read-out: cellular IC50

% covalent modification at 24 h (PDEδ [1]): 8 ± 5%
SMILES: Cc1ccc(-n2nc3c(=O)n(CCCC(=O)NCCCCCBr)nc(C)c3c2C)cc1 [2d]

SMILES: Cc1ccc(-n2nc3c(=O)n(CCCC(=O)N(CCCCl)CC4CCNCC4)nc(C)c3c2C)cc1 [3a]
% covalent modification at 24 h (PDEδ [1]): not reactive enough to yield any detectable covalent adduct

SMILES: Cc1ccc(-n2nc3c(=O)n(CCCC(=O)N(CCCCCCl)CC4CCNCC4)nc(C)c3c2C)cc1 [3b]
% covalent modification at 24 h (PDEδ [1]): not reactive enough to yield any detectable covalent adduct

SMILES: Cc1ccc(-n2nc3c(=O)n(CCCC(=O)N(CCCBr)CC4CCNCC4)nc(C)c3c2C)cc1 [3c]
% covalent modification at 24 h (PDEδ [1]): not reactive enough to yield any detectable covalent adduct

% covalent modification at 24 h (PDEδ [1]): 11 ± 4%
SMILES: Cc1ccc(-n2nc3c(=O)n(CCCC(=O)N(CCCCCBr)CC4CCNCC4)nc(C)c3c2C)cc1 [3d]

% covalent modification at 24 h (PDEδ [1]): 23 ± 3%
SMILES: Cc1ccc(-n2nc3c(=O)n(CCCCS(=O)(=O)N(CCCCCBr)CC4CCNCC4)nc(C)c3c2C)cc1 [4b]

IC50 (PDEδ [2]): 0.017 ± 0.0061 µM | ΔTm at 60 µM (PDEδ [3]): 14.7 ± 1.2 °C | site of covalent modification in PDEδ (PDEδ [4]): either at p.E88 or p.E89 | % covalent modification at 24 h (PDEδ [1]): 62 ± 10% | half-life at 1 mM [5]: 180 days | half-life at 1 mM ([6]; HEPES buffer, pH 7.5, 37 °C, compound 1 mM, read-out: half-life t1/2 in HEPES buffer (converted)): 85 h | half-life at 1 mM ([6]; acetate buffer, pH 5.6, 37 °C, read-out: half-life t1/2 in acetate buffer (converted)): 43 h
SMILES: Cc1ccc(-n2nc3c(=O)n(CCCCS(=O)(=O)N(CCCCCCCBr)CC4CCNCC4)nc(C)c3c2C)cc1 [5e]

IC50 (PDEδ [2]): 0.0137 ± 0.0034 µM | ΔTm at 60 µM (PDEδ [3]): 11.3 ± 0.6 °C
SMILES: Cc1ccc(-n2nc3c(=O)n(CCCCS(=O)(=O)N(CCCCCCCCl)CC4CCNCC4)nc(C)c3c2C)cc1 [5h]

IC50 (PDEδ [2]): 0.0082 ± 0.004 µM | ΔTm at 60 µM (PDEδ [3]): 11.1 ± 0.6 °C | IC50 (MIA PaCa-2 cells; Homo sapiens, MIA PaCa-2, 72 h, read-out: cellular IC50): 10.9 ± 1.9 µM | IC50 (SW480 cells; [10]): > 50 µM | IC50 (NCI-H358 cells; Homo sapiens, NCI-H358, 72 h, NCI-H358, 72 h): 6.8 ± 1.9 µM | IC50 (NCI-H358 cells; NCI-H358, 72 h): 6.3 ± 1.9 µM | IC50 (BxPC-3 cells; [10]): > 26 µM
SMILES: Cc1ccc(-n2nc3c(=O)n(CCCCS(=O)(=O)N(CCc4cccc(CCCl)c4)CC4CCNCC4)nc(C)c3c2C)cc1 [6b]
IC50 (PA-TU-8902 cells; Homo sapiens, PaTu 8902, PA-TU-8902, 72 h, read-out: cellular IC50): 12 ± 1 µM | general cytotoxicity [7]: not observed

SMILES: Cc1ccc(-n2nc3c(=O)n(CCCC(=O)NCC(C)c4ccccc4)nc(C)c3c2C)cc1 (centres unmarked) [Deltazinone 1, reference compound]
% Growth rate of MIA PaCa-2 cells (MIA PaCa-2 cells; 25 µM): 96% | % Growth rate of MIA PaCa-2 cells (MIA PaCa-2 cells; 50 µM): 80% | growth inhibition (MIA PaCa-2 cells; MIA PaCa-2, doses up to 50 µM): little or no growth inhibition; also recorded: no anti-proliferative activity | growth inhibition (SW480 cells; doses up to 50 µM): little or no growth inhibition | IC50 (NCI-H358 cells; Homo sapiens, NCI-H358, 72 h): 0.14 ± 0.11 µM | growth inhibition (BxPC-3 cells; doses up to 50 µM): little or no growth inhibition | % Growth rate of PA-TU-8902 cells (PA-TU-8902 cells; 25 µM): 29% | % Growth rate of PA-TU-8902 cells (PA-TU-8902 cells; 50 µM): 23% | cellular Rheb distribution [8]: loss of inhibition for PDEδ-Rheb interaction

SMILES: Cc1c(Cl)cccc1NC(=O)CCCn1nc(C)c2c(C)n(-c3ccccc3)nc2c1=O [Deltazinone derivative]
Kd (PDEδ [9]): 0.005 ± 0.002 µM

covalent modification of acid sites in UNC119B (UNC119B): covalently modified
SMILES: CCOC(=O)N1CCC(Nc2c(NCCCBr)c(=O)c2=O)CC1 [compound 7]
